The structures appear in SMILES notation.

The experiment deals with DSS-induced colitis. Put plainly: Chronic DSS-induced colitis in mice (body weight, DAI, colon length, histology). It counts as in vivo, C57BL/6 mice. The conditions noted are these: sulfasalazine (positive control) 300 mg/kg/day for seven days. The source says:
6-week-old male C57BL/6 mice weighing 18-20 g are purchased from the Laboratory Animal Services Center, the Chinese University of Hong Kong. The study protocols are approved by the committee for Care of Laboratory Animals in the School of Chinese Medicine at the Hong Kong Baptist University. The animals are divided into six groups (8-10 each group): control group (mice received drinking water and control diet), DSS-treated group (mice received 2.0% DSS in drinking and control diet), positive control group (mice received 2.0% DSS in drinking and ip, 300 mg/kg/day of sulfasalazine), Pd-Ib treatment groups will be given different dosed of Pd-Ib (mice received 2.0% DSS in drinking and i.p., 30, 60, or 120 mg/kg/day, respectively). As depicted in experiment design shown in FIG. 9, the mice are given tap water for 6 days, and then be divided into 6 groups. DSS is dissolved in distilled water at a concentration of 2% (w/v) and administered to the mice. The first day and the last day of DSS treatment are designated as day 7 and day 11, respectively. Mice are marked and checked daily for body weight. On day 12, body weight, stool consistency, and gross bleeding of each mouse are assessed, and animals showing body weight loss, diarrhea, and bleeding are selected for further analysis. All colitis mice are then interventions once daily for seven days, with eight mice in each group. The DSS model group is administered with tap water as negative control; while sulfasalazine is given as positive control (i.p., 300 mg/kg/day) and Pd-Ib treatment groups are given different doses of Pd-Ib (i.p., 30, 60, or 120 mg/kg/day, respectively). In parallel, a vehicle control group is also set up to receive drinking tap water without DSS throughout the entire experimental period. On day 19, after the mice are killed under anesthesia induced by pentobarbital sodium (i.p., 0.65 g/kg), the length of the large intestine is measured. All portions are stored at −80° C. for biochemical assays. The DAI is determined by scoring changes in the body weight, diarrhea, colon length, and bleeding. In brief, body weight, stool consistency, colon length and bleeding in the stool are monitored daily for determination of DAI. At the end of the experiment, mice are killed, and the colon is dissected from each mouse, and the length of which is measured from the ileocecal junction to the anal verge. The colons are opened longitudinally, gently washed with ice-cold PBS, fixed in 4% paraformaldehyde overnight, and embedded in paraffin. Five-micro-meter sections are stained with hematoxylin/eosin according to a standard procedure to evaluate colonic damage. Colitis is induced in all groups except the control group. Pd-Ib and sulfasalazine are administered to mice from day 6 to day 12. The change in body weight is taken as the difference between the body weight before induction of colitis and that immediately before sacrifice on day 13. The DAI score is determined by combining scores of (i) body weight loss, (ii) stool consistency, and (iii) stool bleeding. On day 13, the mice are sacrificed, and the colon lengths are measured. Data are expressed as mean±SEM, n=8 (^###p<0.001, compared with the control group; *p<0.05, **p<0.01, ***p<0.001, compared with DSS model group).

On to `O=C(O)c1cc(/N=N/c2ccc(S(=O)(=O)Nc3ccccn3)cc2)ccc1O` [sulfasalazine, Sulfasalazine, reference compound], for which the “histological manifestation of colon tissue sections” value is on record as “significantly decrease the damage of colon tissues”.

(Values after patent US9408828B2, “(+)-3′-angeloyloxy-4′-keto-3′,4′-dihydroseselin for treating inflammation” (Hong Kong Baptist University, priority 2014, dated 2016).)
